How the values were obtained:
FLT3 = FLT3 (Homo sapiens, UniProt P36888); experiment: Kinase panel: FLT3; format: biochemical; settings: 10 μM EP009
Description: (§1) Achieving JAK3 selectivity remains a significant challenge in the development of new small molecules for the treatment of cancer and immune-derived diseases. As such, the inventors employed cell-based screening assays of small-molecule libraries based upon the chemical scaffold of the established JAK3 inhibitor NC1153 (Stepkowski et al., J Immunol. (2005), 175(7):4236-4246) EP009 (FIG. 2A) was selected as a lead compound due to improved intrinsic stability (>95% purity in various solvents at 37° C. for 24 hours; FIG. 3) and high-degree of JAK3 selectivity. To test JAK3 versus JAK2 specificity of EP009, the IL-2/JAK3-dependent Kit225, and IL-3/JAK2-dependent BaF/3 cell lines were used. Kit225 and BaF/3 cells growing in the presence of IL-2 or IL-3, respectively, were treated with ascending concentrations of EP009 for 12 hours and cellular JAK3 and JAK2 tyrosine phosphorylation levels detected by Western blot analysis (FIGS. 2B and 2C). Following densitometric analysis, EP009 was determined to dose-dependently reduce IL-2-mediated JAK3 tyrosine phosphorylation with a cellular 50% inhibitory concentration (IC50) between 10 and 20 μM (FIG. 2B). […] To globally evaluate specificity, the inhibitory activity of EP009 was measured against a panel of protein kinases distributed throughout the kinome using the scanEDGE profiling service (KINOMEscan). […]

JAK2 = target: T1, JAK2 (Mus musculus, UniProt Q62120); experiment: IL-3-induced JAK2 tyrosine phosphorylation in BaF/3 cells (IP/Western blot); format: cell-based, murine; settings: 12 hours, concentrations up to 50 μM
T1 construct: cellular JAK3 and JAK2 tyrosine phosphorylation levels detected by Western blot analysis; endogenous in cells; host or cells: Ba/F3 (BaF/3)
Description: FIGS. 2A-2F. Selective inhibition of JAK3 by EP009 results in loss of JAK3-dependent tumor cell line viability with no detectable off-target effects in key cell types. (A) Chemical structure of EP009 (M.W. 224.34). (B) Kit225 or (C) BaF/3 cells cultured in the presence of IL-2 or IL-3, respectively, were treated with vehicle (PBS; lane a) or increasing amounts of EP009 (0-50 μM; lanes b-h) for 12 hours. Cells were then lysed, clarified, and immunoprecipitated (IP) with anti-JAK3 (α-JAK3) or anti-JAK2 (α-JAK2), and subjected to Western blot (WB) analysis with anti-phosphotyrosine (α-pY). Blots were stripped and reprobed with corresponding antibody to verify equivalent protein loading. […] (E) Kit225 or BaF/3 cells were cultured with increasing amounts of EP009 (0-10 μM) for 72 hours and cell viability measured with the MTS tetrazolium salt assay. Values represent mean absorbance (OD490-OD650 nm) normalized to vehicle (PBS) treated control cells, while error bars represent the standard deviation (n=3). (F) HEK293, HEPG2, or naïve primary human PBMCs were cultured with increasing amounts of EP009 (0-10 μM) for 72 hours and cell viability measured with the MTS tetrazolium salt assay. Values represent mean absorbance (OD490-OD650 nm) normalized to vehicle (PBS) treated control cells, while error bars represent the standard deviation (n=3). […]

BTK = BTK (Homo sapiens, UniProt Q06187); experiment: Kinase panel: BTK; format: biochemical; settings: 10 μM EP009
Description: as §1

p38-alpha = p38-alpha (Homo sapiens, UniProt Q16539); experiment: Kinase panel: p38-alpha; format: biochemical; settings: 10 μM EP009
Description: as §1

T1 sequence (Q62120 whole entry): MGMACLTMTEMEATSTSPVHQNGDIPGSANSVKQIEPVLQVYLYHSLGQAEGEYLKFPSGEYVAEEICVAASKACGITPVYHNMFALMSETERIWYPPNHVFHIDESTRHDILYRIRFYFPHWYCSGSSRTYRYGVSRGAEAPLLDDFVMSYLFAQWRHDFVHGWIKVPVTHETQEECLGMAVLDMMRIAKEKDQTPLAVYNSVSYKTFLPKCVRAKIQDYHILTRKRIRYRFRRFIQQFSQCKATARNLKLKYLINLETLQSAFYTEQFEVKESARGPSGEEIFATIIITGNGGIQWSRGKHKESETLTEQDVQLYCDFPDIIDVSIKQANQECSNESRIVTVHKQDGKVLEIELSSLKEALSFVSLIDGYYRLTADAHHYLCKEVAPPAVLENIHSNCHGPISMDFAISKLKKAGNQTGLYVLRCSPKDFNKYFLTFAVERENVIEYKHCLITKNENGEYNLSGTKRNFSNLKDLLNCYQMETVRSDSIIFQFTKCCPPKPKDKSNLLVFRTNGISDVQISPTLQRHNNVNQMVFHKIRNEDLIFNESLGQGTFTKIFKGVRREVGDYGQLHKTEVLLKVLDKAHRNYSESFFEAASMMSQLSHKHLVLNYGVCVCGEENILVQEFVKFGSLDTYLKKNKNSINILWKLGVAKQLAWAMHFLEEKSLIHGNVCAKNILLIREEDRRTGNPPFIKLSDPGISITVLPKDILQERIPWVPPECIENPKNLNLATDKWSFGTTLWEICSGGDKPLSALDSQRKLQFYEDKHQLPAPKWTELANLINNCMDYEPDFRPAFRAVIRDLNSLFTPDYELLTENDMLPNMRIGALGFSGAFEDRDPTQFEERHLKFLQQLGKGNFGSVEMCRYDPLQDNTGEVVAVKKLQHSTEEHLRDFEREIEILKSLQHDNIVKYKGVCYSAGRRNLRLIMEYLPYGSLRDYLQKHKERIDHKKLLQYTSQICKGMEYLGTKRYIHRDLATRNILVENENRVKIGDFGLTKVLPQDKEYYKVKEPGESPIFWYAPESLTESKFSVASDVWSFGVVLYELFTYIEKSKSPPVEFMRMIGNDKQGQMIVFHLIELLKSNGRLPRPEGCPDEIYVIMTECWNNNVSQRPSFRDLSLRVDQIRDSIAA
p38-alpha, sequence (Q16539 whole entry): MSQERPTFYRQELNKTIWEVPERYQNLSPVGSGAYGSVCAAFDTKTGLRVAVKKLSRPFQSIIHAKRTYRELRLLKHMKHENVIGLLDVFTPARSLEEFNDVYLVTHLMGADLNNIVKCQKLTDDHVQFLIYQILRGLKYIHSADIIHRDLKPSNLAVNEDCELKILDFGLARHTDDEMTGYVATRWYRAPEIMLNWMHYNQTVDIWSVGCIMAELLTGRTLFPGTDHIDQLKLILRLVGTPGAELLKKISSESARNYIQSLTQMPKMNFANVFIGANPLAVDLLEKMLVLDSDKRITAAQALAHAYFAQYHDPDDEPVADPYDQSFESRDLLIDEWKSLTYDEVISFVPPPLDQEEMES
FLT3, sequence (P36888 27-993): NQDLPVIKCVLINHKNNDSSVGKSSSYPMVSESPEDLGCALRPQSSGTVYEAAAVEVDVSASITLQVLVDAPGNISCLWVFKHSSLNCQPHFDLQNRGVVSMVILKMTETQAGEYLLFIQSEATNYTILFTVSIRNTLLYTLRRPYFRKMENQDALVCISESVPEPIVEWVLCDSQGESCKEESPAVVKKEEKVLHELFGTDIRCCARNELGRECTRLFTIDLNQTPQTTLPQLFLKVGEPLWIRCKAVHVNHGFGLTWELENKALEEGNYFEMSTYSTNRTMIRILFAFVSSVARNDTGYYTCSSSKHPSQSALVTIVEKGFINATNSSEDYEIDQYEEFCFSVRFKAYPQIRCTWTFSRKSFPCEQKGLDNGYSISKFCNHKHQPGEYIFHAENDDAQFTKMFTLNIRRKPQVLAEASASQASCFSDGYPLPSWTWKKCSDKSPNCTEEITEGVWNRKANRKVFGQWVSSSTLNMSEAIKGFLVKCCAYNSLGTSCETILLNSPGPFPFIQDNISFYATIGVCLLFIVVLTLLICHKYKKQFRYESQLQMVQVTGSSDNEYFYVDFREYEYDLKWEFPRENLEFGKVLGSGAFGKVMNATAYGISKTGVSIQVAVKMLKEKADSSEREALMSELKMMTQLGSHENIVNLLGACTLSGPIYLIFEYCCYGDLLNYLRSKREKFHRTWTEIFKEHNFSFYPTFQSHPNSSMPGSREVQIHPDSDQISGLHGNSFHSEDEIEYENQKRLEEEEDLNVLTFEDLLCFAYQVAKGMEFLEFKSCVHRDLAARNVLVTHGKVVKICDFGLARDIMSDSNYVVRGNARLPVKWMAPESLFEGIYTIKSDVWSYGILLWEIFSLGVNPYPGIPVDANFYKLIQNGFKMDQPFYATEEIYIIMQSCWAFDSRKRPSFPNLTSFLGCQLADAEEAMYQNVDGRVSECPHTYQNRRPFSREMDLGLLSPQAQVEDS
BTK, sequence (Q06187 whole entry): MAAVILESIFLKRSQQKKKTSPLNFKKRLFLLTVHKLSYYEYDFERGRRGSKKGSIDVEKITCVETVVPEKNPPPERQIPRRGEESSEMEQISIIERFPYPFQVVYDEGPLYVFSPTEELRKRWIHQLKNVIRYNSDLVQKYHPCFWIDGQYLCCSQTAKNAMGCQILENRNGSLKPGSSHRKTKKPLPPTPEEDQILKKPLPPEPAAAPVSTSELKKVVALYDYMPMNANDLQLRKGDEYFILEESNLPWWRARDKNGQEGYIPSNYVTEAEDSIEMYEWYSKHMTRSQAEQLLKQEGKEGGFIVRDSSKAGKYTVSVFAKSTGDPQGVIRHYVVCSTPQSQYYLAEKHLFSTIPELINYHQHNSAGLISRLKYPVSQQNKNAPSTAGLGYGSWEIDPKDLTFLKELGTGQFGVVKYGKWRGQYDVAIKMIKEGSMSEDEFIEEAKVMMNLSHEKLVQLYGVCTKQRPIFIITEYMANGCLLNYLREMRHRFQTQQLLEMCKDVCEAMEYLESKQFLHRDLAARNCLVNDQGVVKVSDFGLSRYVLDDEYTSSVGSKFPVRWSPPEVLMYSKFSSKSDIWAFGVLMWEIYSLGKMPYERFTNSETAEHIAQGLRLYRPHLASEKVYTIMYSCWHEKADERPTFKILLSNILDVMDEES

C=C1CCCCCCCCCC(CO)C1=O (stereo not shown) [EP009, 2-(Hydroxymethyl)-12-methylenecyclododecanone]
Kinase Activity (% of Control) (FLT3): 99 % of Control | effect on IL-3-induced JAK2 tyrosine phosphorylation (JAK2): no detectable effect | Kinase Activity (% of Control) (BTK): 91 % of Control | Kinase Activity (% of Control) (p38-alpha): 100 % of Control

From patent US9371265B2, “Compositions and methods related to inhibitors of JAK kinase” (EP PHARMA, INC., priority 2012, dated 2016)
